In patent publication US20210154119A1, “ASMT EXPRESSION PROMOTER” (Shiseido Company, Ltd., priority 2018, published 2021):

Test system: ASMT gene
Experiment: ASMT gene expression level in epidermal keratinocytes by quantitative PCR
Format: cell-based
Experimental: Commercially available normal adult skin-derived keratinocytes (Kurabo) were inoculated into a T75 flask at 5×10^5 cells/flask, and were cultured in a keratinocyte medium (Humedia-KG2, Kurabo) at 37° C. in a 5% CO2 atmosphere until they reached semiconfluency. The resulting cells were used as seed cells. The keratinocytes were collected by trypsinization, and inoculated into a 24-well plate at 2×10^4 cells/well, and cultured in a keratinocyte medium (Humedia-KG2, Kurabo) at 37° C., 5% CO2 atmosphere until they reached confluency.
To the epidermal keratinocytes having reached confluency was added the ectoin sample at an appropriate dilution ratio so that the ectoin concentration in the medium was 1 mM, followed by the continuation of the culture at 37° C. in a 5% CO2 atmosphere. As a control, a medium not containing the ectoin sample was used to carry out the culture.
Ten hours after the addition of ectoin, the medium was removed. Then the cells were lysed and RNA was extracted therefrom using a commercially available RNA extraction reagent (RNeasy Mini Kit, Qiagen).
Using the thus extracted RNA as a template, quantitative PCR was performed with a commercially available quantitative PCR reagent (BrilliantII QRT-PCR kit, Agilent) and a quantitative PCR device (Mx-3005P, Agilent), by which the expression level of the ASMT gene was determined. At the same time, the expression level of the RPLP0 gene whose expression level was almost constant was also determined as an internal standard. Commercially available PCR primer set (Takara Bio Inc.) specific to each gene was used.
To the epidermal keratinocytes cultured in the same manner as in Example 1 was added the ectoin sample at appropriate dilution ratios so that the ectoin concentration in the medium was 0.005 wt %, 0.01 wt %, 0.02 wt %, 0.05 wt %, 0.1 wt %, followed by the continuation of the culture at 37° C. in a 5% CO2 atmosphere.
To the epidermal keratinocytes cultured in the same manner as in Example 1 was added the respective samples at appropriate dilution ratios so that the concentration in the medium was respectively 1 mM (ectoine), 100 μM (glycosyl hesperidin), 0.1% (green tea extract), and 0.1% (oolong tea extract). These concentrations are all normal concentrations to be used in external formulations. After the addition of the samples, the cells were cultured, from which the ASMT expression level was evaluated in the same manner as in Example 1. As a control, a medium not containing any sample was used to carry out the culture.

With `CC1=N[C@H](C(=O)O)CCN1` [ectoin, (4S)-2-methyl-1,4,5,6-tetrahydropyrimidine-4-carboxylic acid] the “ASMT gene expression level relative to control (control set to 1)” value (ectoin 1 mM in medium, 10 hours, normal adult skin-derived keratinocytes, versus medium containing no ectoin (FIG. 1)) was “very high ASMT expression promoting action”, the “Concentration-dependency of ASMT expression promoting action” value (ectoin 0.005-0.1 wt % in medium, 10 hours, keratinocytes (FIG. 2)) was “dependent on the concentration thereof” and the “ASMT gene expression level (ASMT/RPLP0) in comparison with various antioxidants” value (ectoine 1 mM versus glycosyl hesperidin 100 μM, green tea extract 0.1%, oolong tea extract 0.1%, keratinocytes (FIG. 3)) was “higher than that of green tea extract, oolong tea extract, and glycosyl hesperidin”. For the same compound, the “ASMT gene expression level (ASMT/RPLP0)” value (ectoine 0.02 wt % in medium, 10 hours, keratinocytes, compared with 0.005 wt % and 0.01 wt % (FIG. 2)) was “higher than the cases of lower concentrations of ectoine (0.005 wt %, 0.01 wt %)”.
